US12600712B2 (Hoffmann-La Roche Inc., priority 2020, dated 2026)

These compounds were tested against T1, human Autotaxin (ATX) (Homo sapiens, UniProt Q13822) (assay: Human ATX enzyme inhibition assay (LPC substrate, choline oxidase/HRP/Amplex Red coupled format)). Conditions: recombinant hATX 1 nM, 18:1 LPC 30 μM, fluorescence at 90 min minus 5 min.
T1 construct: used as template in overlapping PCR to generate a full length human ENPP2 ORF with or without a 3′-6×His tag; 6xHis (C); made in house; host or cells: FreeStyle 293-F cells (transient transfection, protein purified from culture supernatant)
Assay type: biochemical
Procedure: Human ATX Enzyme Inhibition Assay
To identify inhibitors of the human Autotaxin (ATX) enzyme an in-vitro biochemical profiling assay has been developed using lysophosphatidylcholine (LPC) as substrate and recombinant enzyme. ATX activity is assayed via a coupled enzyme format where choline produced from LPC hydrolysis is converted to hydrogen peroxide by choline oxidase (CO). Hydrogen peroxide is in turn used as a co-substrate by horseradish peroxidase (HRP) to oxidise Amplex Red® and generate the red-fluorescent product, Resorufin.
50 mM Tris-HCl (pH 8.0); 120 mM NaCl; 20 mM CaCl2); 5 mM KCl; 1 mM MgCl2; 0.01% Triton X-100, sterile-filtered and stored at 4° C.
50 mM Tris-HCl (pH 8.0); 150 mM NaCl human Autotaxin (hATX): 0.97 mg/ml (9.718 μM) Molecular weight 99817. Working solution of 1.5 μM used in this assay.
100 mM 18:1 LPC dissolved in reagent dilution-buffer.
500 U/ml Choline Oxidase in reagent dilution buffer.
2540 U/ml Horseradish Peroxidase, in reagent dilution buffer (10.95 mg/ml).
20 mM Amplex Red (10-Acetyl-3,7-dihydroxy-phenoxazin) in DMSO.
Black, 384-well plate, black with clear bottom, non-treated surface.
Test compounds are received pre-diluted in DMSO as an 11-point concentration-response (0.5 mM highest concentration; 1 in 3.162 dilution). Test compounds are pre-diluted 1:1 (10 μL compound+10 μL assay buffer) in a 96-well conical bottomed plate prior to use.
ATX is diluted to 2.2 nM in assay buffer. Choline oxidase and horseradish peroxidase are diluted to 7.3 U/ml and 14.7 U/ml, respectively. 18:1 LPC and Amplex Red® are diluted to 110 μM and 183.3 μM, respectively (solution protected from light). 2.2 μL of compound pre-dilution or 50% DMSO is added to the reaction plate followed by 25 μL of ATX or assay buffer (negative control). Assay plate is mixed and incubated at room temperature for 10 mins. 15 μL of choline oxidase/horseradish peroxidase is then added. To initiate the reaction 15 μL of LPC 18:1/Amplex Red is added. Assay plate is mixed and incubated at room temperature in the dark. Fluorescence is measured at 5 mins (for background subtraction) and 90 mins.
• hATX: 1 nM • 18:1 LPC: 30 μM • Choline Oxidase: 2 U/ml • Horse Radish Peroxidase: 4 U/ml • Amplex Red®: 50 μM • DMSO: 2%
Fluorescence at 5-minutes is subtracted from the 90-minute end point data and normalized with respect to the positive control. IC50 values are calculated.
Results in the enzymatic ATX inhibition assay are provided for compounds of formula (I).

| Compound | IC50 [nM] |
| --- | --- |
| O=C(c1cnc(NC2Cc3cc(Cl)cc(OC(F)F)c3C2)nc1)N1CCC12COC2 (stereo not shown) [Example 5] | 224 |
| O=C(c1cnc(NC2Cc3cccc(Cl)c3C2)nc1)N1CCC12COC2 (stereo not shown) [Example 15, (2-((4-chloro-2,3-dihydro-1H-inden-2-yl)amino)pyrimidin-5-yl)(6-oxa-1-azaspiro[3.3]heptan-1-yl)methanone] | 282 |
| O=C(c1cnc(NC2Cc3ccc(Cl)c(Cl)c3C2)nc1)N1CCC12COC2 (stereo not shown) [Example 3, (2-((4,5-dichloro-2,3-dihydro-1H-inden-2-yl)amino)pyrimidin-5-yl)(6-oxa-1-azaspiro[3.3]heptan-1-yl)methanone] | 128 |
| CC#Cc1cc(Cl)cc2c1CC(Nc1ncc(C(=O)N3CCC34COC4)cn1)C2 (stereo not drawn) [Example 7, (2-((6-chloro-4-(prop-l-yn-1-yl)-2,3-dihydro-lH-inden-2-yl)amino)pyrimidin-5-yl)(6-oxa-1-azaspiro[3.3]heplan-l-yl)methanone] | 23.7 |
| N#Cc1cc(Cl)cc2c1C[C@@H](Nc1ncc(C(=O)N3CCC34CC(F)(F)C4)cn1)C2 [Example 13, (S)-6-chloro-2-((5-(6,6-difluoro-1-azaspiro[3.3]heptane-1-carbonyl)pyrimidin-2-yl)amino)-2,3-dihydro-1H-indene-4-carbonitrile] | 3 |
| O=C(c1cnc(NC2Cc3ccc(Cl)c(F)c3C2)nc1)N1CCC12COC2 (stereo not drawn) [Example 9, (2-((5-chloro-4-fluoro-2,3-dihydro-lH-inden-2-yl)amino)pyrimidin-5-yl)(6-oxa-1-azaspiro[3.3]heplan-l-yl)methanone] | 123 |
| CC1(C)CCN1C(=O)c1cnc(N[C@H]2Cc3cc(Cl)cc(C#N)c3C2)nc1 [Example 12, (S)-6-chloro-2-((5-(2,2-dimethylazetidine-1-carbonyl)pyrimidin-2-yl)amino)-2.3-dihydro-1H-indene-4-carbonitrile] | 6.5 |
| C[C@]1(O)C[C@]2(CCN2C(=O)c2cnc(N[C@H]3Cc4cc(Cl)cc(C#N)c4C3)nc2)C1 [Example 14, (cis)-6-chloro-2-(S)-((5-(6-hydroxy-6-methyl-1-azaspiro[3.3]heptane-1-carbonyl)pyrirnidin-2-yl)amino)-2,3-dihydro-1H-indene-4-carbonitrile] | 5.5 |
| Cc1c(Cl)ccc2c1CC(Nc1ncc(C(=O)N3CCC34COC4)cn1)C2 (stereo not shown) [Example 6] | 101 |
| O=C(c1cnc(NC2Cc3cc(Cl)cc(C(F)(F)F)c3C2)nc1)N1CCC12COC2 (stereo not shown) [Example 10, (2-((6-chloro-4-(trifluoromethyl)-2,3-dihydro-1 H-inden-2-yl)amino)pyrimidin-5-yl)(6-oxa-1-azaspiro[3.3]heptan-1-yl)melhanone] | 184 |

Continued, values first:

| IC50 [nM] | Compound |
| --- | --- |
| 111 | O=C(c1cnc(NC2Cc3cc(Cl)cc(F)c3C2)nc1)N1CCC12COC2 (racemic) [Example 8, (2-((6-chloro-4-fluoro-2,3-dihydro-1H-inden-2-yl)amino)pyrimidin-5-yl)(6-oxa-1-azaspiro[3.3]heplan-l-yl)melhanone] |
| 7.4 | N#Cc1cc(Cl)cc2c1C[C@@H](Nc1ncc(C(=O)N3CCC34COC4)cn1)C2 [Example 11, (S)-2-((5-(6-oxa-1-azaspiro[3.3]heptane-1-carbonyl)pyrimidin-2-yl)amino)-6-chloro-2,3-dihydro-1H-indene-4-carbonitrile] |
| 13 | O=C(c1cnc(NC2Cc3cc(Cl)cc(Cl)c3C2)nc1)N1CCC12COC2 (stereo not shown) [Example 1] |
| 45.1 | O=C(c1cnc(NC2Cc3cc(Cl)cc(F)c3C2)nc1)N1CCC12COC2 (single isomer, unassigned) [Example 16, (S or R)-(2-((6-chloro-4-fluoro-2,3-dihydro-1H-inden-2-yl)amino)pyrimidin-5-yl)(6-oxa-1-azaspiro[3.3]heptan-1-yl)methanone] |
| 62 | Cc1cc(Cl)cc2c1CC(Nc1ncc(C(=O)N3CCC34COC4)cn1)C2 (stereo not shown) [Example 2, (2-((6-chloro-4-methyl-2,3-dihydro-1H-inden-2-yl)amino)pyrimidin-5-yl)(6-oxa-1-azaspiro[3.3]heptan-1-yl)methanone] |
| 20.8 | N#Cc1cc(Cl)cc2c1CC(Nc1ncc(C(=O)N3CCC34COC4)cn1)C2 (stereo not shown) [Example 4, 2-((5-(6-oxa-1-azaspiro[3.3]heptane-1-carbonyl)pyrimidin-2-yl)amino)-6-chloro-2,3-dihydro-1H-indene-4-carbonitrile] |
